Results reported in ChEMBL document CHEMBL5543130, “Design, Synthesis, and In Vivo Evaluation of Isosteviol Derivatives as New SIRT3 Activators with Highly Potent Cardioprotective Effects” (J Med Chem, 2024).
Activity calls are given as the source filed them. The rule behind the calls is not given here.

What was measured:
Danio rerio [1] = test: Cardioprotective activity against doxorubicin-induced Zebrafish cardiomyopathy model at 5 to 15 uM fertilized for 24 hrs followed by compound administration for 72 hrs and measured at 96 hrs post fertilization by inverted fluorescence microscopic analysis; type: functional, organism-based; settings: dose 5-15 µM
H9c2 [2] = test: Cardioprotective activity against doxorubicin-induced rat H9c2 cells assessed as downregulation of cTnT mRNA level upto 10 uM qPCR analysis; type: functional, cell-based
Mus musculus [3] = test: Cardioprotective activity against doxorubicin-induced C57BL/6 mouse cardiomyopathy model assessed as reduction in cTnT mRNA level at 2.5 mg/kg, ip administered for 7 days; type: functional, organism-based; settings: time 7.0 day
H9c2 [4] = test: Upregulation of OPA1 expression in rat H9c2 cells upto 10 uM by Western blot analysis; type: functional, cell-based
Mus musculus [5] = test: Cardioprotective activity against doxorubicin-induced C57BL/6 mouse cardiomyopathy model assessed as reduction in Anp mRNA level at 2.5 mg/kg, ip administered for 7 days; type: functional, organism-based; settings: time 7.0 day
H9c2 [6] = test: Antioxidant activity against doxorubicin-induced rat H9c2 cells assessed as increase in SOD level upto 10 uM in presence of 3-TYP; type: functional, cell-based
Danio rerio [7] = species on record: Danio rerio; test: Cardioprotective activity against doxorubicin-induced Tg(cmlc2: GFP) Zebrafish assessed as reduction in Bnp mRNA level measured at 72 hrs post fertilization by qPCR analysis; type: functional, organism-based
H9c2 [8] = test: Cardioprotective activity against doxorubicin-induced rat H9c2 cells assessed as increase in cell viability at 10 uM incubated for 24 hrs in presence of EX527 by CCK-8 assay; type: functional, cell-based
Danio rerio [9] = test: Cardioprotective activity against doxorubicin-induced Tg(cmlc2: GFP) Zebrafish assessed as […] at 5 uM measured at 72 hrs post fertilization; type: functional, organism-based
H9c2 [10] = test: Upregulation of OPA1 expression in doxorubicin-induced rat H9c2 cells transfected with SIRT3 siRNA at 10 uM by Western blot analysis; type: functional, cell-based
H9c2 [11] = test: Antioxidant activity against doxorubicin-induced rat H9c2 cells assessed as decrease in MDA level upto 10 uM; type: functional, cell-based
H9c2 [12] = test: Antioxidant activity against doxorubicin-induced rat H9c2 cells assessed as decrease in MDA level upto 10 uM in presence of 3-TYP; type: functional, cell-based
Mus musculus [13] = test: Cardioprotective activity against doxorubicin-induced C57BL/6 mouse cardiomyopathy model assessed as collagen fraction volume at 2.5 mg/kg, ip administered for 7 days by Sirius staining based analysis; type: functional, organism-based; settings: time 7.0 day
H9c2 [14] = test: Cardioprotective activity against doxorubicin-induced rat H9c2 cells assessed as downregulation of Anp mRNA level upto 10 uM qPCR analysis; type: functional, cell-based
Mus musculus [15] = test: Cardioprotective activity against doxorubicin-induced C57BL/6 mouse cardiomyopathy model assessed as reduction in Bnp mRNA level at 2.5 mg/kg, ip administered for 7 days; type: functional, organism-based; settings: time 7.0 day
Danio rerio [16] = species on record: Danio rerio; test: Cardioprotective activity against doxorubicin-induced Tg(cmlc2: GFP) Zebrafish assessed as reduction in cTnT mRNA level measured at 72 hrs post fertilization by qPCR analysis; type: functional, organism-based; settings: dose <= 5.0 µM
H9c2 [17] = test: Upregulation of SOD2 expression in rat H9c2 cells upto 10 uM by Western blot analysis; type: functional, cell-based
H9c2 [18] = test: Cardioprotective activity against doxorubicin-induced rat H9c2 cells assessed as downregulation of Bnp mRNA level upto 10 uM qPCR analysis; type: functional, cell-based
Danio rerio [19] = species on record: Danio rerio; test: Cardioprotective activity against doxorubicin-induced Tg(cmlc2: GFP) Zebrafish at 15 uM measured at 72 hrs post fertilization; type: functional, organism-based
H9c2 [20] = test: Antioxidant activity against doxorubicin-induced rat H9c2 cells assessed as increase in GSH level upto 10 uM in presence of 3-TYP; type: functional, cell-based
H9c2 [21] = test: Induction of ROS accumulation in doxorubicin-induced rat H9c2 cells assessed as reduction in fluorescence intensity upto 10 uM incubated for 30 min in presence of 3-TYP by DCFH-DA and PI staining based microscopic analysis; type: functional, cell-based
Mus musculus [22] = test: Cardioprotective activity against doxorubicin-induced C57BL/6 mouse cardiomyopathy model assessed as collagen fraction volume at 2.5 mg/kg, ip administered for 7 days by masson staining based analysis; type: functional, organism-based; settings: time 7.0 day
H9c2 [23] = test: Induction of ROS accumulation in doxorubicin-induced rat H9c2 cells assessed as reduction in fluorescence intensity incubated for 30 min by DCFH-DA and PI staining based microscopic analysis; type: functional, cell-based; settings: dose 1-10 µM
H9c2 [24] = test: Cardioprotective activity against doxorubicin-induced rat H9c2 cells assessed as reduction in LDH release upto 10 uM; type: functional, cell-based
H9c2 [25] = test: Cardioprotective activity against doxorubicin-induced rat H9c2 cells assessed as increase in cell viability incubated for 24 hrs by CCK-8 assay; type: functional, cell-based; settings: dose 1-10 µM
H9c2 [26] = test: Antioxidant activity against doxorubicin-induced rat H9c2 cells assessed as increase in SOD level upto 10 uM; type: functional, cell-based
H9c2 [27] = test: Antioxidant activity against doxorubicin-induced rat H9c2 cells assessed as increase in GSH level upto 10 uM; type: functional, cell-based
H9c2 [28] = test: Cardioprotective activity against doxorubicin-induced rat H9c2 cells assessed as increase in cell viability at 10 uM incubated for 24 hrs in presence of 3-TYP by CCK-8 assay; type: functional, cell-based
Mus musculus [29] = test: Cardioprotective activity against doxorubicin-induced C57BL/6 mouse cardiomyopathy model assessed as upregulation of […] level at 2.5 mg/kg, ip administered for 7 days by Western blot analysis; type: functional, organism-based; settings: time 7.0 day
Mus musculus [30] = test: Cardioprotective activity against doxorubicin-induced C57BL/6 mouse cardiomyopathy model assessed as upregulation of SOD2 level at 2.5 mg/kg, ip administered for 7 days by Western blot analysis; type: functional, organism-based; settings: time 7.0 day
Danio rerio [31] = species on record: Danio rerio; test: Cardioprotective activity against doxorubicin-induced Tg(cmlc2: GFP) Zebrafish assessed as restoration of normal heart structure at 5 uM measured at 72 hrs post fertilization; type: functional, organism-based
H9c2 [32] = test: Upregulation of SIRT3 expression in rat H9c2 cells upto 10 uM by Western blot analysis; type: functional, cell-based
Mus musculus [33] = test: Cardioprotective activity against doxorubicin-induced C57BL/6 mouse cardiomyopathy model assessed as upregulation of SIRT3 level at 2.5 mg/kg, ip administered for 7 days by Western blot analysis; type: functional, organism-based; settings: time 7.0 day
Mus musculus [34] = species on record: Mus musculus; test: Antioxidant activity against doxorubicin-induced C57BL/6 mouse assessed as increase in GSH level in heart; type: functional, organism-based
H9c2 [35] = test: Induction of mitochondrial membrane potential loss in doxorubicin-induced rat H9c2 cells incubated for 30 mins in prsence of 3-TYP by JC-1 staining based fluorescence microscopic analysis; type: cell-based
H9c2 [36] = test: Induction of ROS accumulation in doxorubicin-induced rat H9c2 cells transfected with SIRT3 siRNA assessed as reduction in fluorescence intensity at 10 uM incubated for 30 min in presence of 3-TYP by DCFH-DA and PI staining based microscopic analysis; type: functional, cell-based
H9c2 [37] = test: Induction of mitochondrial membrane potential loss in doxorubicin-induced rat H9c2 cells transfected with SIRT3 siRNA incubated for 30 mins in prsence of 3-TYP by JC-1 staining based fluorescence microscopic analysis; type: cell-based
H9c2 [38] = test: Cardioprotective activity against doxorubicin-induced rat H9c2 cells assessed as reduction in LDH release upto 10 uM in presence of 3-TYP; type: functional, cell-based
H9c2 [39] = test: Induction of mitochondrial membrane potential loss in doxorubicin-induced rat H9c2 cells incubated for 30 mins by JC-1 staining based fluorescence microscopic analysis; type: cell-based; settings: dose 1-10 µM
H9c2 [40] = test: Upregulation of SOD2 expression in doxorubicin-induced rat H9c2 cells transfected with SIRT3 siRNA at 10 uM by Western blot analysis; type: functional, cell-based
H9c2 [41] = test: Cardioprotective activity against doxorubicin-induced rat H9c2 cells assessed as increase in cell viability at 10 uM incubated for 24 hrs by CCK-8 assay; type: functional, cell-based
Mus musculus [42] = species on record: Mus musculus; test: Antioxidant activity against doxorubicin-induced C57BL/6 mouse assessed as decrease in MDA level in heart; type: functional, organism-based
Danio rerio [43] = species on record: Danio rerio; test: Cardioprotective activity against doxorubicin-induced Tg(cmlc2: GFP) Zebrafish assessed as reduction in Anp mRNA level measured at 72 hrs post fertilization by qPCR analysis; type: functional, organism-based; settings: dose <= 5.0 µM
Danio rerio [44] = species on record: Danio rerio; test: Cardioprotective activity against doxorubicin-induced Tg(cmlc2: GFP) Zebrafish at 5 uM measured at 72 hrs post fertilization; type: functional, organism-based
Danio rerio [45] = test: Cardioprotective activity against doxorubicin-induced Zebrafish cardiomyopathy model assessed as survival rate at 5 uM fertilized for 24 hrs followed by compound administration for 72 hrs and measured at 96 hrs post fertilization by inverted fluorescence microscopic analysis; type: functional; settings: Danio rerio
Danio rerio [46] = test: Cardioprotective activity against doxorubicin-induced Zebrafish cardiomyopathy model assessed as survival rate at 15 uM fertilized for 24 hrs followed by compound administration for 72 hrs and measured at 96 hrs post fertilization by inverted fluorescence microscopic analysis; type: functional

## C[C@@]12CC[C@@H]3[C@@](CC[C@H]4[C@@]3(C)CCC[C@@]4(C)C(=O)N3CCN(C(=O)CCCC(=O)O)CC3)(CC1=O)C2
Danio rerio [1]
  Activity: Active

## C[C@@]12CC[C@@H]3[C@@](CC[C@H]4[C@@]3(C)CCC[C@@]4(C)C(=O)N3CCN(C(=O)c4ccccc4C(=O)O)CC3)(CC1=O)C2
H9c2 [2]
  Activity: Active
Mus musculus [3]
  Activity: Active
H9c2 [4]
  Activity: Active
Mus musculus [5]
  Activity: Active
H9c2 [6]
  Activity: Active
Danio rerio [7]
  Activity: Dose-Dependent Effect
H9c2 [8]
  Activity: inactive
Danio rerio [9]
  Activity: Active
H9c2 [10]
  Activity: Active
H9c2 [11]
  Activity: Active
H9c2 [12]
  Activity: Active
Mus musculus [13]
  Activity: Active
H9c2 [14]
  Activity: Active
Mus musculus [15]
  Activity: Active
Danio rerio [16]
  Activity: Dose-Dependent Effect
H9c2 [17]
  Activity: Active
H9c2 [18]
  Activity: Active
Danio rerio [19]
  Activity: Active
H9c2 [20]
  Activity: Active
H9c2 [21]
  Activity: Active
Mus musculus [22]
  Activity: Active
H9c2 [23]
  Activity: Dose-Dependent Effect
H9c2 [24]
  Activity: Active
H9c2 [25]
  Activity: Dose-Dependent Effect
H9c2 [26]
  Activity: Active
H9c2 [27]
  Activity: Active
H9c2 [28]
  Activity: inactive
Mus musculus [29]
  Activity: Active
Mus musculus [30]
  Activity: Active
Danio rerio [31]
  Activity: Active
H9c2 [32]
  Activity: Active
Mus musculus [33]
  Activity: Active
Mus musculus [34]
  Activity: Active
H9c2 [35]
  Activity: Active
H9c2 [36]
  Activity: Active
H9c2 [37]
  Activity: Active
H9c2 [38]
  Activity: Active
H9c2 [39]
  Activity: Dose-Dependent Effect
H9c2 [40]
  Activity: Active
H9c2 [41]
  Activity: Active
Mus musculus [42]
  Activity: Active
Danio rerio [43]
  Activity: Dose-Dependent Effect
Danio rerio [44]
  Activity: Active

## C[C@@]12CC[C@@H]3[C@@](CC[C@H]4[C@@]3(C)CCC[C@@]4(C)C(=O)N3CCN(C(=O)CCC(=O)O)CC3)(CC1=O)C2
Danio rerio [45]
  survival at 5 µM: 50%
Danio rerio [1]
  Activity: Active
Danio rerio [46]
  survival at 15 µM: 50%
